Read-outs that look alike come from different tables or passages of the source.

Data set [1] has as its target gastric H,K-ATPase. To be noted: cited from earlier work; for IC50: literature (refs 6, 7), read-out: published IC50, H,K-ATPase.
Data set [2] can be described thus: Plasma ML3000 level after immediate release dosage forms. The data set is classed as in vivo. Conditions: immediate release dosage form.
Data set [3] concerns the target T1, gastric H,K-ATPase (Sus scrofa, UniProt P19156).
T1 construct: Reaction mixtures for assay of K^+-stimulated ATPase activity in pig gastric microsomal membranes contained 5 μg membrane protein; from tissue; host or cells: pig gastric fundic mucosa, G1 microsomal fraction
Description: K+-stimulated, SCH28080-sensitive H,K-ATPase activity of pig gastric microsomes (32Pi release from ATP). In kind it is biochemical. To be noted: for IC50: pig gastric microsomes, pH 7.0, 20 minutes at 37° C., read-out: half-maximal inhibitory concentration (IC50), H,K-ATPase activity; for inhibitory effect on microsomal H,K-ATPase activity: concentrations up to 10^−4 M; for effect on H,K-ATPase activity: non-physiological concentrations greater than 10^−7 M; for inhibitory activity against H,K-ATPase: physiological concentrations (10^−9-10^−8 M). As to the method:
Strategy. Microsomal gastric H,K-ATPase was prepared from pig gastric mucosal homogenates by differential centrifugation. Briefly, pig stomachs obtained at a slaughter-house within 1 hour post mortem were washed with ice-cold 0,25 M sucrose and the fundus was dissected from the cardiac and antral regions. All subsequent prodedures were at 4° C. The mucosa was flooded with saturated NaCl, and the surface mucus and superficial cells wiped off with paper towels. The mucosa was scraped from the underlying connective tissue, suspended (10% w/v) in isolation buffer (0,25 M sucrose, 20 mM HEPES, pH 7,4, 1 mM EDTA, 1 mM phenylmethylsulfonyl fluoride), and disrupted by two 10 second bursts at maximum power in a Tissumizer (Tekmar, Cincinnati, Ohio). The homogenate was centrifuged at 20,000 g for 30 minutes, and the supernatant was centrifuged at 10^5 g for 1 hour. The resulting microsomal pellet was resuspended in isolation buffer, and applied to a discontinuous gradient of 7% w/v Ficoll and 34% sucrose (both in isolation buffer). After 3 hours at 32,500 rpm (Sorvall AH 629 rotor), the microsomal band (G1) recovered from the 7% Ficoll interface was resuspended to 10 mg/ml in 15 mM PIPES-Tris, pH 6,8, diluted 1:1 with cold 60% sucrose, lyophilized in 0,5 ml aliquots, and stored at −70° C. Gl microsomes were about 0,1 microns in diameter, were enriched in H.K.-ATPase activity, and more than 80% of their protein content banded at 94 kDa by SDS-PAGE. ATP hydrolytic activity of microsomes was quantitated in terms of inorganic phosphate release from substrate ATP and measured in graded concentrations (ranging from 10^−9M to 10^−4M) of ML 3000, and a wide range of other compounds. Reaction mixtures for assay of K^+-stimulated ATPase activity in pig gastric microsomal membranes contained 5 μg membrane protein, 100 mM Tris-acetate, pH 7.0, 1 mM MgCl2, 1 mM NaNa, 0,1 mM EGTA, 5 μM ATP (γ-^32P-ATP, 10 Ci/mmol, NEN, Boston, Mass.), 0-10 mM KCl, and 0-100 μM SCH 28080. After 20 minutes incubation at 37° C., reactions were stopped by addition of 10% w/v activated charcoal (Sigma), 5,5% w/v trichloroacetic acid, vortexed vigorously, and centrifuged at 14,000 g for 10 minutes at 4° C. Inorganic phosphate (γ-^32Pi) content of the supernatant was measured by scintillation counting. […] Graphs with standard error bars present inter-assay data variance in three independent assays in each of which ATPase activities in three separate but identical reaction conditions were measured. Graphs without standard error bars represent the mean ATPase activities in three separate but identical reaction conditions in one of at least three independent assays; typical data are shown in these cases.
The wide range of published PPI IC50 values for microsomal H,K-ATPase reflects the mechanistic necessity for compound acidification to allow formation of a thiol-reactive […] intermediate which then irreversibly derivatizes H,K-ATPase a subunit cysteine residues leading to enzyme inhibition. […] Microsomal vesicle preparations vary widely in their ion-tightness, which affects the extent to which internal pH can be lowered by H,K-ATPase turnover, and therefore the extent to which omeprazole diffusing into the vesicle can be acidified and activated. Alternatively, prior in vitro acidification of omeprazole ensures induction of its inhibitory properties, and is essential in assays carried out using ion-permeable microsomal H,K-ATPase preparations. For this reason, the omeprazole inhibitory data shown in FIG. 2 were derived using omeprazole acidified to pH 6.1 and incubated with the enzyme for 30 min at the same pH (8).
Given that PPIs are irreversible inhibitors of H,K-ATPase activity, covalently binding to the catalytic α-subunit, it was determined whether ML 3000 inhibition of H,K-ATPase was reversible or irreversible. […]

Data set [4] deals with rabbit gastric parietal cells. Description: [14C]-aminopyrine (acid) accumulation in isolated gastric parietal cells. The data set is classed as cell-based. Conditions: for IC50: Oryctolagus cuniculus; for effect on acid accumulation by isolated rabbit parietal cells: up to concentrations of 10^−4 M. Here is the method: Strategy. Gastric parietal cells were isolated from New Zealand White Rabbits by pronase/collagenase digestion of fundic mucosa followed by enrichment of cells on discontinuous Nycodenz gradients in a manner known per se. Aminopyrine accumulation into parietal cells was assessed in 96 well filter plates with Durapore membranes. […] All determinations were performed in quadruplicate. Basal aminopyrine accumulation was determined as aminopyrine accumulation into […] (a reflection of non-specific isotope trapping).

The test system of data set [5] is human gastric adenocarcinoma (AGS) cells. Description: IL-8 secretion by AGS cells into culture medium (ELISA). The data set is classed as cell-based. Conditions: 6 hr.
In data set [6] the target is T1, gastric H,K-ATPase. As to the kind of experiment: K+-stimulated, SCH28080-sensitive H,K-ATPase activity of pig gastric microsomes (32Pi release from ATP). In kind it is biochemical. Conditions: concentrations up to 10^−3 M.
Setting [7] is: AGS cells without IL-1β stimulation, read-out: IC50, baseline IL-8 secretion.

T1 sequence (P19156 2-1034 limits assumed): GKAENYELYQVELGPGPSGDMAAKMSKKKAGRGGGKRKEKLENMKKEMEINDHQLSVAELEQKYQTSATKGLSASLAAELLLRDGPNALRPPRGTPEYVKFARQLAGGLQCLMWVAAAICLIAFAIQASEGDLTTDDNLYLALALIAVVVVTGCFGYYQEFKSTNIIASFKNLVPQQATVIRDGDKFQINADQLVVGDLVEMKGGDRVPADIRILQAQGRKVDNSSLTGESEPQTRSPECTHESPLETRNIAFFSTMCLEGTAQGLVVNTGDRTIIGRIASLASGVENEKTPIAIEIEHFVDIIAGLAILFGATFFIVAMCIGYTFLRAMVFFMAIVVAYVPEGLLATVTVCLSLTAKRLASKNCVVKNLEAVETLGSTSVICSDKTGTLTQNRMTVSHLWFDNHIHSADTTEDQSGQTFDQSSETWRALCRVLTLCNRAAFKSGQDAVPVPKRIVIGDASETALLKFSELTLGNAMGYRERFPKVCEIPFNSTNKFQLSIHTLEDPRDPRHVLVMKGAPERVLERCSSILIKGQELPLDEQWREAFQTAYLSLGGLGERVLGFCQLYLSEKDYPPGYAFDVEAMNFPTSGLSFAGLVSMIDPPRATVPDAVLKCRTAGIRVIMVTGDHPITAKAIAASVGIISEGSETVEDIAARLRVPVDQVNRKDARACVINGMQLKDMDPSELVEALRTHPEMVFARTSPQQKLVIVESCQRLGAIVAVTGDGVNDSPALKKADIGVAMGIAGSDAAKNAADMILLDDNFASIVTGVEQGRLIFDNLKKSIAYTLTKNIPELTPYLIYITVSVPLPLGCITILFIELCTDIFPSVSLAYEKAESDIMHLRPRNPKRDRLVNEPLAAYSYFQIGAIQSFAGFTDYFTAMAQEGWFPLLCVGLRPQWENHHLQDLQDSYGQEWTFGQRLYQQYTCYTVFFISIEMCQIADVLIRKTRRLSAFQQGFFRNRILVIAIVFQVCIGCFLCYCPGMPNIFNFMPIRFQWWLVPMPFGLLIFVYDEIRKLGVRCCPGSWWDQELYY
T1 sequence (P18434 whole entry partner): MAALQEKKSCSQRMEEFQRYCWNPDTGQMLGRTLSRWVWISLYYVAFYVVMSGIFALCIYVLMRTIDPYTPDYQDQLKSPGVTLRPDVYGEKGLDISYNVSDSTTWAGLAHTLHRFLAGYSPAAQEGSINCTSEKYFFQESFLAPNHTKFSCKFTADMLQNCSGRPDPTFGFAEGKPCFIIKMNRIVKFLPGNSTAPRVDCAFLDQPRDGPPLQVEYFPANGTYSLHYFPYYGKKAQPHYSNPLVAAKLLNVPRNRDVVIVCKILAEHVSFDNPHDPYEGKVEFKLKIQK

On to `COC(=O)c1cc2nc([S+]([O-])Cc3ncccc3C)[nH]c2cc1C` (centres unmarked) [picoprazole], for which the IC50 in data set [1] is 2 µM.

In the case of `CC1(C)Cc2c(-c3ccccc3)c(-c3ccc(Cl)cc3)c(CC(=O)O)n2C1` [ML 3000, [6-(4-chlorophenyl)-2,2-dimethyl-7-phenyl-2,3-dihydro-1H-pyrrolizine-5-yl]-acetic acid], the “plasma ML3000 concentration maintained for 8 hours” value is recorded as “above 100 ng/mL” in data set [2] (dose 2.5 mg/kg) and over 200 ng/mL in data set [2] (dose 5 mg/kg). For the same compound, the “reversibility of H,K-ATPase inhibition on dilution” value in data set [3] (diluted from 100 μM to 3.3 μM) was “restored H,K-ATPase activity”. In data set [3] (half-maximal inhibitory concentration titrated to different pHs), the “effect of acidification on H,K-ATPase inhibitory profile” value is on record as “no significant effect”. Further, the IC50 is 15 µM in data set [3]; 40 µM in data set [4] (100 μM histamine, read-out: IC50, histamine-stimulated acid accumulation); about 45 µM in data set [4] (read-out: IC50, forskolin-stimulated acid accumulation); 0.75 µM in data set [5] (setting [7]); 30 µM in data set [5] (AGS cells, IL-1β (20 ng/ml), read-out: IC50, IL-1β-stimulated IL-8 secretion).

As for `CC(=O)Oc1ccccc1C(=O)O` [acetyl salicylic acid], the “inhibitory effect on microsomal H,K-ATPase activity” value (“inhibitory effect” below) in data set [6] is given as “without inhibitory effects”. The “effect on acid accumulation by isolated rabbit parietal cells” value in data set [4] is given as “no effect”.

With `CCCCC[C@H](O)/C=C/[C@H]1[C@H](O)CC(=O)[C@@H]1C/C=C\CCCC(=O)O` [prostaglandin E2], in data set [3], the IC50 amounted to 45 µM.

For `Cc1c(OCC(F)(F)F)ccnc1C[S+]([O-])c1nc2ccccc2[nH]1` (centres unmarked) [lansoprazole], the IC50 in data set [1] is 2.1 µM.

As to `CCCCC/C=C\C/C=C\C/C=C\C/C=C\CCCC(=O)O` [Arachidonic acid], the IC50 in data set [3] came out at 30 µM.

Turning to `CS(=O)(=O)Nc1ccc([N+](=O)[O-])cc1OC1CCCCC1` [NS 398], in data set [3], the “inhibitory effect” value is “without inhibitory effects”. Also, in data set [4], the “effect on acid accumulation by isolated rabbit parietal cells” value is on record as “no effect”.

Usually Ki stands for the equilibrium dissociation constant of an inhibitor or competing ligand from its target. Consider `COc1ccc2c(c1)c(CC(=O)O)c(C)n2C(=O)c1ccc(Cl)cc1` [indomethacin], for which, in data set [3], the “inhibitory effect” value is reported as “without inhibitory effects”. In addition, the Ki in data set [1] (previously reported (ref 10)) was 670 µM.

Consider `CCCCC/C=C\C\C=C/C=C/C=C/[C@@H](SC[C@H](N)C(=O)NCC(=O)O)[C@@H](O)CCCC(=O)O` [LTD4, leukotriene D4], for which, in data set [3], the “effect on H,K-ATPase activity” value was “significant attentuation of H,K-ATPase activity” and the “inhibitory activity against H,K-ATPase” value is “neither leukotriene showed any inhibitory activity”.

A word on the inhibition: it is the drop in the measured response relative to a control, in per cent. Low values mean little suppression, high ones strong suppression. Turning to `COC1(c2cc(F)cc(OCc3ccc4c(ccc(=O)n4C)c3)c2)CCOCC1` [ZD-2138], in data set [3] (at 10^−5 M), the inhibition at 10 µM was about 20%. The IC50 in data set [5] (setting [7]) is about 0.4 µM.

Regarding `COc1ccc2cc([C@H](C)C(=O)O)ccc2c1` [naproxen], the “inhibitory effect” value in data set [3] is listed as “without inhibitory effects”.

As for `CCCCC/C=C\C[C@@H](O)/C=C/C=C/C=C\[C@@H](O)CCCC(=O)O` [LTB4, leukotriene B4], in data set [3], the “effect on H,K-ATPase activity” value is given as “significant attentuation of H,K-ATPase activity” and the “inhibitory activity against H,K-ATPase” value was “neither leukotriene showed any inhibitory activity”.
